Measurements from ChEMBL document CHEMBL1150548, “Dopamine autoreceptor agonists: computational studies, synthesis and biological investigations” (Bioorg Med Chem Lett, 1993).
pIC50: −log10 of the molar value.

Experiments:
D(2) dopamine receptor [1] = target: T1, D(2) dopamine receptor (Rattus norvegicus, UniProt P61169); assay: Compound was evaluated for binding affinity to Dopamine receptor D2 labeled with [3H]-SND 919 (0.5 nM) in rat striatal membranes; type: cell membranes, Striatum, Membrane
T1 sequence (P61169 whole entry): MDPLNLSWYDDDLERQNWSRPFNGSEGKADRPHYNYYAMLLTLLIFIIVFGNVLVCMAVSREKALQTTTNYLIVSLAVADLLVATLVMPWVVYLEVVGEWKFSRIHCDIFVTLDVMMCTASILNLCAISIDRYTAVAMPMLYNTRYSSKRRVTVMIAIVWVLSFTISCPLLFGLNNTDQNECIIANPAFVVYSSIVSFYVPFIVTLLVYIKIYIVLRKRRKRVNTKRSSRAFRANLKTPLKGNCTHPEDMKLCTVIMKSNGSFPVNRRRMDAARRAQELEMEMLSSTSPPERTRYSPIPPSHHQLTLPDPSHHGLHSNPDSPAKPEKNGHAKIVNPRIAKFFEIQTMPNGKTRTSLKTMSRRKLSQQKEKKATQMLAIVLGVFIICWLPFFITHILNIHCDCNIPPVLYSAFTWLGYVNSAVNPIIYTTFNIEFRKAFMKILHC

D(1A) dopamine receptor = D(1A) dopamine receptor (Rattus norvegicus, UniProt P18901); assay: Compound was evaluated for binding affinity to Dopamine receptor D1 labeled with [3H]-SCH- 23390 (0.3 nM) in rat striatal membranes; type: cell membranes, Striatum, Membrane
D(1A) dopamine receptor, sequence (P18901 whole entry): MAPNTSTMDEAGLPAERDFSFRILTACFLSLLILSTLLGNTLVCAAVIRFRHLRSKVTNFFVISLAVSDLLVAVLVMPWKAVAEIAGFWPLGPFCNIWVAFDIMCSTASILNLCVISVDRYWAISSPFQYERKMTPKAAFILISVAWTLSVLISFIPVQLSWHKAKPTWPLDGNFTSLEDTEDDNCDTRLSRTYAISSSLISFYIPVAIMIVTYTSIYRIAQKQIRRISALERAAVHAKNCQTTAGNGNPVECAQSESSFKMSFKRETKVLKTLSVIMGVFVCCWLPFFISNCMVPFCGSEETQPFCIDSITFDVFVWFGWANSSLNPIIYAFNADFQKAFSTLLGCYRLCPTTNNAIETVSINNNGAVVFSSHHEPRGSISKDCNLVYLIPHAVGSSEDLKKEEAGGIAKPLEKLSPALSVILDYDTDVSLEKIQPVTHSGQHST

D(2) dopamine receptor [2] = target: T1, D(2) dopamine receptor; assay: Compound was evaluated for binding affinity to Dopamine receptor D2 labeled with [3H]spiroperidol (0.5 nM) in rat striatal membranes; type: cell membranes, Striatum, Membrane
Mus musculus [3] = assay: Compound was evaluated for agonistic activity (DA receptor) by inhibition of GBL (gamma-butyralactone)-induced L-Dopa accumulation at a dose 10 mg/kg; type: functional
Mus musculus [4] = assay: Compound was evaluated for agonistic activity (DA receptor) by inhibition of GBL (gamma-butyralactone)-induced L-Dopa accumulation at a dose of 10 mg/Kg; type: functional

Structure (SMILES)	pIC50 (D(2) dopamine receptor [1])	pIC50 (D(1A) dopamine receptor)	pIC50 (D(2) dopamine receptor [2])	inhibition in vivo at 10 mg/kg (Mus musculus [3])	inhibition in vivo at 10 mg/kg (Mus musculus [4])
CCCNC1Cc2cccn3ncc(c23)C1 (centres undefined)	5.57	< 4.00	< 4.00		
NC1Cc2cccn3ncc(c23)C1 (centres undefined)	5.55	< 4.00	< 4.00		
CCCN(CCC)[C@H]1CCn2cccc2C1	7.52	4.84	5.15	62%	
CCCN(CCC)C1Cc2cccn3ncc(c23)C1 (centres undefined)	6.59	< 4.00	4.30		57%
